System: Conyza species (fleabane, ERISS)
Experiment: Field trial of post-emergence (foliar) herbicidal activity, percent weed control visually rated
Type: in vivo
Conditions: Cmpd 1 alone 5 g ae/ha, Table 2
Description: Treatments consisted of the methyl ester of 4-amino-3-chloro-6-(4-chloro-2-fluoro-3-methoxyphenyl)pyridine-2-carboxylic acid (Cmpd 1) tankmixed with saflufenacil or paraquat. The form of compound of formula (I) was applied on an acid equivalent basis, and saflufenacil and paraquat were applied on an active ingredient basis. Saflufenacil was applied as a commercial formulation containing 700 grams per kilogram (g/kg). Paraquat was applied as a commercial formulation containing 200 g/L.
Field trials were conducted under standard field conditions. Plot sizes varied from 2 meters (m) wide by 5 m long. Treatments were applied with small plot backpack sprayers, using pressurized carbon dioxide (CO2) as propellant. Pressure varied from 40-45 pounds per square inch (PSI), with spray tips typically of a Flat Fan type applying water diluent at 100 liters per hectare (L/ha). Boom size was 2 m in width. Weed sizes varied, but all treatments were applied as post-emergence treatments to weeds from 2 leaf to 2 tiller growth stages varying from 2-15 inches in height. No additional adjuvant was mixed with the treatments applied in the field.
Results in Tables 1 to 2 are field trial results for foliar applied compositions. The values reported are percent (%) control visually rated. The predicted percent (%) weed contol was determined using Colby's equation.
The following abbreviations are used in Tables 1 to 2: ERISS=Conyza species (fleabane, ERISS) g ae/ha=grams acid equivalent per hectare g ai/ha=grams active ingredient per hectare Mean % weed control=observed value of percent (%) control rated visually Predicted mean % weed control=expected value of percent (%) control as calculated by Colby's equation Cmpd 1=methyl 4-amino-3-chloro-6-(4-chloro-2-fluoro-3-methoxyphenyl)pyridine-2-carboxylate, halauxifen-methyl, or ARYLEX® DAA=days after application

COC(=O)c1nc(-c2ccc(Cl)c(OC)c2F)cc(N)c1Cl [Cmpd 1, methyl 4-amino-3-chloro-6-(4-chloro-2-fluoro-3-methoxyphenyl)pyridine-2-carboxylate]
Cmpd 1 Mean % weed control (17DAA): 33.75% | Cmpd 1 Mean % weed control (28DAA): 33.75% | Cmpd 1 Mean % weed control (43DAA): 40%

Reference: patent US20170181431A1, “HERBICIDAL COMPOSITIONS CONTAINING 4-AMINO-3-CHLORO-6-(4-CHLORO-2-FLUORO-3-METHOXYPHENYL) PYRIDINE-2-CARBOXYLIC ACID OR A DERIVATIVE THEREOF AND A CELL MEMBRANE DISRUPTOR HERBICIDE OR A DERIVATIVE THEREOF” (Dow AgroSciences LLC, priority 2015, published 2017)
